* marks the point of attachment. Hexenoyl(3E) = CC/C=C/CC(=O)*
Experiments:
[1] = tested on: CSF1; assay: Plasma CSF1 by Olink proximity extension assay, randomized trial of tesamorelin vs placebo; assay type: in vivo, human; conditions: HIV-associated NAFLD, tesamorelin 2 mg daily, change over 12 months, plasma NPX, mean ± SD, n = 20
Description: (§1) A randomized, double blind trial in which individuals with HIV-associated NAFLD were assigned to receive the growth hormone-releasing hormone (GHRH) analogue tesamorelin 2 mg daily or identical placebo for 12 months (7). […] Changes in circulating levels of proteins corresponding to top leading-edge genes in pathways responsive to tesamorelin between treatment groups were investigated, and the relationships of these proteins to histologic, radiographic, and transcriptomic indices was assessed to identify plasmatic markers of NAFLD/NASH and elucidate potential mechanisms of tesamorelin response.
(§2) 61 men and women 18-70 years old who had documented HIV infection and liver steatosis as defined by hepatic fat fraction ≥5% on ^1H-magnetic resonance spectroscopy (^1H-MRS) were enrolled. […]
(§3) Study procedures for the parent clinical trial have been described in detail elsewhere (7, 9). […] Serum IGF-1 was measured using standard techniques (Quest Laboratories).
(§4) For this analysis, change in targeted proteins over 12 months was assessed using an Olink® Multiplex proximity extension assay (PEA) platform. The PEA is an affinity-based assay that characterizes abundance levels of pre-determined sets of proteins. […] The resultant DNA sequence is detected and quantified using standard real-time PCR on the Fluidigm BioMark™ HD real-time PCR platform. […]

[2] = tested on: TNFRSF21; assay: Plasma TNFRSF21 by Olink proximity extension assay, randomized trial of tesamorelin vs placebo; assay type: in vivo, human; conditions: HIV-associated NAFLD, tesamorelin 2 mg daily, change over 12 months, plasma NPX, mean ± SD, n = 20
Description: as §1, §2, §3, §4

[3] = tested on: TGFB1; assay: Plasma TGFB1 by Olink proximity extension assay, randomized trial of tesamorelin vs placebo; assay type: in vivo, human; conditions: HIV-associated NAFLD, tesamorelin 2 mg daily, change over 12 months, plasma NPX, mean ± SD, n = 20
Description: as §1, §2, §3, §4

[4] = tested on: CRTAM; assay: Plasma CRTAM by Olink proximity extension assay, randomized trial of tesamorelin vs placebo; assay type: in vivo, human; conditions: HIV-associated NAFLD, tesamorelin 2 mg daily, change over 12 months, plasma NPX, mean ± SD, n = 20
Description: as §1, §2, §3, §4

[5] = tested on: CCL20; assay: Plasma CCL20 by Olink proximity extension assay, randomized trial of tesamorelin vs placebo; assay type: in vivo, human; conditions: HIV-associated NAFLD, tesamorelin 2 mg daily, change over 12 months, plasma NPX, mean ± SD, n = 20
Description: as §1, §2, §3, §4

[6] = tested on: CASP8; assay: Plasma CASP8 by Olink proximity extension assay, randomized trial of tesamorelin vs placebo; assay type: in vivo, human; conditions: HIV-associated NAFLD, tesamorelin 2 mg daily, change over 12 months, plasma NPX, mean ± SD, n = 20
Description: as §1, §2, §3, §4

[7] = tested on: VEGFA; assay: Plasma VEGFA by Olink proximity extension assay, randomized trial of tesamorelin vs placebo; assay type: in vivo, human; conditions: HIV-associated NAFLD, tesamorelin 2 mg daily, change over 12 months, plasma NPX, mean ± SD, n = 20
Description: as §1, §2, §3, §4

[8] = tested on: CXCL12; assay: Plasma CXCL12 by Olink proximity extension assay, randomized trial of tesamorelin vs placebo; assay type: in vivo, human; conditions: HIV-associated NAFLD, tesamorelin 2 mg daily, change over 12 months, plasma NPX, mean ± SD, n = 20
Description: as §1, §2, §3, §4

[9] = tested on: NCR1; assay: Plasma NCR1 by Olink proximity extension assay, randomized trial of tesamorelin vs placebo; assay type: in vivo, human; conditions: HIV-associated NAFLD, tesamorelin 2 mg daily, change over 12 months, plasma NPX, mean ± SD, n = 20
Description: as §1, §2, §3, §4

[10] = tested on: hallmark gene pathways; conditions: liver biopsy, pre- to post-treatment (12 months), tesamorelin versus placebo, GSEA FDR <0.05; cited from earlier work

Substance: trans-3-hexenoyl-GHRH(1-44)-NH2 ({Hexenoyl(3E)}-YADAIFTNSYRKVLGQLSARKLLQDIMSRQQGESNQERGARARL-NH2) [Tesamorelin]
- Log2-Fold change plasma CSF1 [1]: −0.17±0.21
- Log2-Fold change plasma CSF1 ([1]; listed as tesamorelin): −0.17±0.21
- Log2-Fold change plasma TNFRSF21 [2]: −0.13 ± 0.22
- Log2-Fold change plasma TGFB1 [3]: −0.35±0.56
- Log2-Fold change plasma TGFB1 ([3]; listed as tesamorelin): −0.35±0.56
- Log2-Fold change plasma CRTAM [4]: −0.35 ± 0.73
- Log2-Fold change plasma CCL20 [5]: −0.28 ± 0.88
- Log2-Fold change plasma CCL20 ([5]; listed as tesamorelin): −0.28±0.88
- Log2-Fold change plasma CASP8 [6]: −0.37 ± 0.72
- Log2-Fold change plasma VEGFA [7]: −0.20±0.35
- Log2-Fold change plasma VEGFA ([7]; listed as tesamorelin): −0.20±0.35
- Log2-Fold change plasma CXCL12 [8]: −0.03 ± 0.18
- Log2-Fold change plasma NCR1 [9]: −0.20 ± 0.52
- 13 hepatic gene sets involved in inflammation, tissue repair, and cell division, regulation with treatment [10]: downregulated
- Hepatic gene set pertaining to oxidative phosphorylation, regulation with treatment [10]: upregulated

Source: patent publication US20230393148A1, “KITS, REAGENTS AND METHODS FOR THE ASSESSMENT OF LIVER DISEASES” (The General Hospital Corporation, priority 2020, published 2023)
